melting point [°C]	SMILES
> 110	CCCCc1nc(C(O)CCC)c(C(N)=O)n1Cc1ccc(-c2ccccc2C(=O)O)cc1 (configuration not stated)
36 to 37	COC(=O)CCC(O)C(=O)OC(C)(C)C (configuration not stated)
237 to 238	CC(=O)Nc1nc(-c2ccc(S(=O)(=O)COC(C)=O)cc2)cs1
59 to 60	CC(C)(O)c1cc(C(F)(F)F)cc(C(F)(F)F)c1
231 to 240	COc1ccc(Nc2ccc(Nc3ncnc4cc(-c5cccs5)sc34)cc2)cc1
163 to 164	Cc1ccc(C=C(F)C(=O)NC(Cc2ccccc2)C(=O)O)cc1 (configuration not stated)
235 to 242	COc1cc2nc(N)nc(-c3cccc(I)c3)c2cc1OC
132	CCOc1ccc2c(c1)C(C)(c1cc(CN3CCCC3)ccc1Cl)C(=O)N2S(=O)(=O)c1ccc(C(=O)NC(C)(C)C)cc1OC (configuration not stated)
84 to 85	CN(C)CCc1cccc(OCCN2C(=O)c3ccccc3C2=O)c1
130 to 133	CCN(C)c1nc2cc(-c3ccccc3)nnc2c2ccccc12
197	Cn1cncc1C(O)(c1ccc(I)cc1)c1ccc2c(c1)c(-c1cccc(Cl)c1)cc(=O)n2C (configuration not stated)
164 to 165	CCc1[nH]n(C2CCCC2)c2nc(-c3ccc4c(c3)CC(C)O4)nc(=O)c1-2 (configuration not stated)
209 to 210	COCC1(C)CCOc2ccc(/C=C/c3ccc(C(=O)O)cc3)cc21 (configuration not stated)
108 to 110	CON=C(C(=O)OC)c1ccccc1COc1ccc2c(c1)OCC2=NOC
86 to 87.5	COc1c(Sc2ccccc2)c2cccnc2n1-c1ccccc1
111 to 113	CC(C)(C#N)c1cc(CO)cc(Cn2cncn2)c1
> 250	O=C1Nc2cccc(Br)c2C12COc1cc3c(cc12)OCCO3 (configuration not stated)
144 to 145	CCOP(=O)(/C=C/c1cn(-c2ccccc2)nc1OCc1ccc(OCc2nc(-c3ccc(OC)c(C(=O)OC)c3)oc2C)c(OC)c1)OCC
173 to 175	COC(=O)c1cccc2oc(SCCN3CCN(CC(=O)Nc4c(C(C)C)cccc4C(C)C)CC3)nc12
169 to 170	O=C(O)COc1ccc(C(F)(F)F)cc1C(=O)NCc1ccc(Br)cc1F
187 to 189	FC(F)(F)c1nnc2c3cc4c(cc3ccn12)OCO4
148	CSC(=S)NCc1cn(-c2ccc(N3CCOCC3)c(F)c2)nn1
138 to 139	COc1ccccc1COc1ccc(-c2cc(O)c(SCCc3ccccc3)c(=O)o2)cc1
222 to 224	O=C(O)c1ccc(C=CC(=O)c2ccccc2)cc1

melting point [°C]	SMILES
279 to 281	O=C(O)COc1cc(C(=O)O)ccc1NC(=O)NC(=O)c1ccc(F)cc1Cl
117 to 119	CCCCCCCCCCNC(=O)c1ccc(N)cc1
66 to 68	Cc1cc(OCCC[Si](C)(C)C)c(Cl)cc1[N+](=O)[O-]
72 to 74	C=CCON=C(CCC)C1=C(O)CC(c2cc(C)cs2)CC1=O (configuration not stated)
186 to 190	CCN(CC)C(=O)c1nc(-c2ccc(Cl)cc2Cl)[nH]c1C(F)(F)F
151 to 153	COC(=O)CC[C@H](NC(=O)c1cc(CCC2CNc3nc(N)nc(O)c3C2)c[nH]1)C(=O)OC (some centres not stated)
105 to 106	CC(=C(C#N)C(=O)c1ccccc1)N(C)C
203 to 205	O=S(=O)(Nc1cnc(Oc2cc3ccccc3cn2)c(Cl)c1)c1ccc(Cl)cc1Cl
198 to 199	CNC(=O)c1cc(C)nc(NC(=O)c2cc(Cl)nn2-c2ncccc2Cl)n1
245	COc1cc2c(cc1OC)CN(c1nc(N)nc3cc(OC)c(OC)cc13)CC2
202 to 203	COCc1cccc(C=O)c1NC(=O)CC1c2ccccc2Oc2ccccc21
201	CC(=O)OC1CSC(Sc2cc(C(F)(F)F)cc(C(F)(F)F)c2)C(OC(C)=O)C1OC(C)=O (configuration not stated)
150 to 152	CCOC(=O)/C=C/c1cc(OC)c(OC)c(OC)c1C#N
164 to 170	Cc1ccc(S(=O)(=O)N2CCC(c3ccc(CCCCC(=O)O)cc3)CC2)cc1
204 to 206	NNC(=S)C12CC3CC(CC(C3)C1)C2
124 to 125	COc1ccc(CCc2ccc(NC(=O)C(=O)c3ccccc3O)cc2)cc1OC
258 to 262	Cc1cc(Nc2ccc(C(C)(C)C)cc2)c2[nH]ncc2n1
106	COC(=O)c1cc(C(=O)N[C@@H](Cc2ccccc2)[C@H]2CN(C3(c4cccc(C(F)(F)F)c4)CC3)C(=O)O2)n2c1CN(C(=O)OC(C)(C)C)CC2
160 to 162	CC(=O)NC[C@H]1CN(c2ccc(N3CCC(n4ccnc4)CC3)c(F)c2)C(=O)O1
48 to 50	CCCCCCNC(=O)NCCCCl
143 to 144	CCCCOC(=O)C(NC(=O)OCc1ccccc1)c1ccc(O)cc1 (configuration not stated)
115	CCOC(=O)c1c(N2CCN(C(=O)c3cccs3)CC2)c2cccnc2n(CC(=O)c2ccccc2)c1=O
134 to 135	COc1cc2c(cc1OCc1ccccc1)CCCN(Cc1cc(OC)c(OC)c(OC)c1)C2=O
284 to 285	CN1CCN(C)c2nc(c3ccccc3n2)NCC2CCCC(CNc3nc1nc1ccccc31)C2

Second part, the molecule before the results:

SMILES	melting point [°C]
COc1cccc2c1c(S(N)(=O)=O)nn2C	268 to 270
CCOC(=O)CNc1c(C(C)C)cc(C(O)(C(F)(F)F)C(F)(F)F)cc1C(C)C	72 to 73
COc1ccc(Cc2nc(C(C)=O)c[nH]2)cc1	147 to 148
O=C(O)c1ccccc1Oc1cc(Cl)c(Cl)cc1NS(=O)(=O)c1ccc(Cl)cc1	220 to 221
CC1(C)CN=C(c2cnc3ccccc3c2)c2ccccc2O1	134 to 135
COc1ccc2[nH]c(S(=O)Cc3ncc(C)c(N4CCCCC4)c3Cl)nc2c1 (configuration not stated)	151 to 152
COC(=O)C1CCC2C3CCC4CC(O)C(Br)CC4(C)C3C(=O)CC12C (configuration not stated)	205 to 208
C1CNCCNCCNCNCCNC1	49 to 51
CC1(C)[C@H](C(=O)OCc2csc(Oc3ccccc3)n2)[C@@H]1C=C1CCSC1=O	78
CC(C)(C)OC(=O)C(N)Cn1c(=O)c(-c2cccs2)nc2ccccc21 (configuration not stated)	144 to 145
C[C@H]1CCCN(C(=O)[C@@H]2Cc3ccccc3N2c2ccc(=S)n(C)n2)C1	249 to 252
C=C1CC2CC(O)CCC2(C)C2CCC3(C)C(C(C)CCC(=O)O)CCC3C12 (configuration not stated)	104 to 105
COc1ccc(COc2c(C)c(C)c3c(c2C)C(c2ccc(N(C)C)cc2)C(C)(C)O3)cc1 (configuration not stated)	105 to 107
CCOC(=O)c1c(C(F)(F)F)nc(C(F)(F)Cl)c(C(=O)OC)c1Cl	57.5 to 59.5
O=c1sc2ccccc2n1Cc1nc2ccccc2n1-c1ccccc1	196 to 198
Nc1ccc(C(=O)c2ccccc2)c(F)c1	133 to 135
CCOC(=O)OC1=C(c2ccccc2)C(CCC(=O)O)OC1=O (configuration not stated)	139 to 141
c1ccc(CN2CCN(c3n[nH]c4c3Cc3ccccc3-4)CC2)cc1	256 to 258
COC(=O)c1ccc(C#Cc2ccccc2)cc1	114
O=C(Nc1cccc(Br)c1)NC1N=C(c2ccccc2F)c2ccccc2N(CC(=O)N2CC3CCC(CC3)C2)C1=O (racemic)	173 to 186
FC(F)(F)c1cnc(CNC(=S)c2ccccc2Cl)c(Cl)c1	102 to 103
c1ccc(Cn2ccnc2COc2nn3c(-c4ccon4)nnc3c3ccccc23)cc1	198
CCCCCCCC/C=C\CCCCCCCC(O)CCCNC(=O)CCNC(C)=O (configuration not stated)	103 to 108
CCOC(=O)CC1(S(N)(=O)=O)c2ccccc2-c2ccc(Cl)cc21 (configuration not stated)	246 to 248
Oc1ccccc1-n1nnc2cccnc21	165 to 166

SMILES	melting point [°C]
C=CC(=O)c1cnc(N2CCC[C@H]2CO)nc1NCc1ccc(OC)c(Cl)c1	113 to 115
COc1ccc2c(CC3CCN(CCc4c(C)sc5c4CCN(C(C)=O)C5)CC3)noc2c1OC	197 to 200
COc1ccc(NC(=O)Nc2ccc(C(=O)O)cc2)cc1C12CC3CC(CC(C3)C1)C2	140 to 141
C#CC1(O)C(C)CC2C3CCC4=CC(=O)CCC4(C)C3CCC21C (configuration not stated)	> 230
COc1ccccc1N1CCN(C(=O)c2ccccc2C(c2ccc(OC(C)C)cc2)c2ccc(OC(C)C)cc2)CC1	120 to 121
CSc1ccc2c(c1)C(=O)c1cc3ccccc3cc1C2=O	195 to 196
CC(=O)n1c(C(F)(F)F)nc(-c2ccc(S(C)(=O)=O)cc2)c1-c1cc(C)cc(Cl)c1	257
O=C(O)CCc1cnoc1-c1ccc(OC(F)(F)F)cc1	116 to 118
O=c1c2ccc(Cl)cc2n(Cc2ccccc2)c(=O)n1S(=O)(=O)c1ccc(Cl)cc1	242 to 244
COC(=O)[C@H]1CC[C@H](N2CCN(c3ccc(C4CCN(C(=O)C(F)(F)F)CC4)cc3)C2=O)CC1	183 to 185
COc1nc(Cl)nc(Cl)c1C#N	117
Oc1ccc(C2=CCCCCCC2)cc1	95 to 97
O=[N+]([O-])c1c(Cl)cc(Cl)cc1CO	133 to 134
O=C(c1ccc2nonc2c1)N(CC(F)(F)F)C1CCOCC1	134 to 135
COC(=O)Nc1nc(C)c(-c2nc3ccccc3c(=O)n2-c2cccc(C)c2)s1	232 to 233
COc1cc2ncc(C#N)c(Nc3ccc4ncccc4c3)c2cc1OC	241 to 243
Nc1cc2c(Nc3ccc4c(cnn4Cc4cccc(F)c4)c3)ncnc2cn1	241 to 244
CCCS(=O)(=O)Nc1ccc(C(=O)CC#N)cc1	150 to 151
COc1c2c(cc3ccc(=O)oc13)CC(C)O2 (configuration not stated)	115 to 116
CC#Cc1c(C#N)nn(-c2c(Cl)cc(C(F)(F)F)cc2Cl)c1N	226 to 228
CC[C@@H](c1ccccc1)N(Cc1ccc(CN)cc1)S(=O)(=O)c1ccc(Cl)cc1	108 to 110
COc1ccc2cc([C@H](C)C(=O)OCCO)ccc2c1	72 to 73
O=C(NCCCOc1ccncc1)c1cccnc1	117 to 119
CC(C)(C)c1ccc2c(Cc3cccc4ccccc34)c3cc(C(C)(C)C)ccc3c(Cc3cccc4ccccc34)c2c1	285
